According to patent US6750332B1, “Salicyl alcohol derivatives” (Cognis Deutschland GmbH & Co. KG, priority 1999, dated 2004):

Experiments:
[1] = test system: prostaglandin synthesis in MSCP5 cells; assay: Inhibition of prostaglandin synthesis/release in keratinocytes (14C-arachidonic acid labelling); type: cell-based, mouse; settings: 10 μm, incubated 2 hours
Procedure: Inhibition of Prostaglandin Synthesis by Salicin Derivatives (in Mouse or Human Skin Keratinocytes MSCP 5 or HPK II)
The cells were marked for 16 hours with 0.2 μCi ^14C-arachidonic acid ml^−1 medium. The test substances were added in fresh medium with increasing concentrations and incubated for 2 hours. In the Figure, the substances have the following meanings:
In the positive control NS398 (10 μm) for MSCP5 cells, prostaglandin synthesis is reduced by 85%. The prostaglandins were identified by comparison with reference substances and quantified by radiosensitometry. The result is expressed as the average value of three measurement points: MSCP 5: 100%=201 cpm; HPK II: 100%=63 cpm.

[2] = HLB value (ratio of hydrophilic to hydrophobic component); type: physicochemical
From the text: The salicyl alcohol derivatives according to the invention have valuable biological activities such as, for example, anti-inflammatory, antipyretic, antiphlogistic or analgesic effects. Thus, prostaglandin synthesis is inhibited to a greater extent with the compounds according to the invention than, for example, with compounds known from the literature, such as salicin, which is associated with the greater lipophilia of the compounds according to the invention. The better effect is dependent inter alia on efficient absorption by the cell membranes of the keratinocytes. The lipid solubility of glycosidic compounds derives from the ratio of hydrophilic component to hydrophobic component which is described by the HLB value. Salicin which has an HLB value of about 12 is more of a water-soluble molecule whereas salicin esters with HLB values of, in some cases, well below 10 are more liposoluble molecules.

[3] = test system: mouse MSCP 5 keratinocytes; assay: Cytotoxicity, MTT test in mouse skin keratinocytes; type: cell-based; settings: concentrations showing inhibition of prostaglandin synthesis, incubation 1.5 or 20 h, confluent or subconfluent
From the text: (§1) Cytotoxicity (in Mouse or Human Skin Keratinocytes, MSCP 5 or HPK II)
(§2) The toxicity of the substances was investigated by the MTT Test (Mosmann 1983) in cell cultures. This test is based on the conversion of the yellow tetrazolium salt MTT into the violet dye formazane. The reaction takes place only in living cells through the succinate dehydrogenase located in the inner mitochondrial membranes. On account of the potential use in cosmetic or pharmaceutical products, skin cells (human HPKII or mouse MSCP 5 keratinocytes) were used as the test system. […] The effect of the substances on the keratinocytes was independent of the time (incubation time 1.5 or 20 h), the growth state (confluent or subconfluent) and the organism (mouse or human).
(§3) The substances were dissolved in the culture medium and incubated with the cells for 20 h. The MTT reduction test was then carried out with fresh medium without test components.

[4] = test system: COX-2-mRNA in MSCP 5 cells; assay: Northern Blot analysis of COX-2 mRNA in keratinocytes; type: cell-based, mouse; settings: subconfluent MSCP 5 cells, 500 μM, 45 mins
Procedure: Influencing of the Transcription Activity of HPK II (Human Skin Keratinocytes)
The release of prostaglandins can be influenced by inhibitors at several levels. Besides inhibition of the catalytic activity of the prostaglandin synthase proteins, another possible effect is on the messenger RNA of the cyclooxygenases. […] As a negative control, the cells were incubated for 45 minutes in medium containing only the solubilizer acetone (0.25%) but no test substance for the same recorded RNA concentration.

[5] = test system: human HPKII keratinocytes; assay: Cytotoxicity, MTT test in human skin keratinocytes; type: cell-based; settings: for toxicity to the cells (MTT test): human HPKII keratinocytes, concentrations showing inhibition of prostaglandin synthesis, incubation 1.5 or 20 h, confluent or subconfluent; for influence on the vitality of skin cells (keratinocytes), FIG. 1: incubated 20 h in culture medium, then MTT reduction test, cell line not given
From the text: as §1, §2, §3

SMILES | reduction of prostaglandin synthesis [1] [%] | HLB value [2] | toxicity to the cells (MTT test) [3] | COX-2-mRNA steady state concentration by comparison with untreated cells [4] | toxicity to the cells (MTT test) [5] | influence on the vitality of skin cells (keratinocytes), FIG. 1 [5]
CS(=O)(=O)Nc1ccc([N+](=O)[O-])cc1OC1CCCCC1 [NS398] | 85 |  |  |  |  | 
OCc1ccccc1O[C@@H]1O[C@H](CO)[C@@H](O)[C@H](O)[C@H]1O [Salicin, [2-(hydroxymethyl)phenyl]-β-D-glucopyranoside] |  | about 12 |  |  |  | 
O=C(Cc1ccc(O)cc1)OC[C@H]1O[C@@H](Oc2ccccc2CO)[C@H](O)[C@@H](O)[C@@H]1O [p-OH-phenyl acetyl salicin, 6-O-p-OH-phenylacetyl-([2-hydroxymethyl)phenyl]-β-D-glucopyranoside] |  |  | non-toxic | greatly reduced | non-toxic | minimal
O=C(CCc1ccccc1)OC[C@H]1O[C@@H](Oc2ccccc2CO)[C@H](O)[C@@H](O)[C@@H]1O [phenylpropionyl salicin, 6-O-phenylpropionyl-[2-(hydroxymethyl)phenyl]-β-D-glucopyranoside] |  |  | non-toxic |  | non-toxic | minimal
